Earlier results on three compounds are cited in patent EP1860434A1, “Method for analysing substance mixtures” (Shimadzu Europa GmbH, priority 2006, dated 2007).

The conditions of this series: listed for the six substances of the Performance Test Probe; no measurement described.

Consider `CC(N)Cc1ccc2c(c1)OCO2` (stereo not drawn) [Methylendioxyamphetamin (MDA), Methylendioxyamphetamin], for which the pKa-Wert is recorded as 9.7.
For the compound `CN(C)C(=O)Oc1cccc([N+](C)(C)C)c1` [Neostigminbromid], the pKa-Wert is 12.
As to “2-Ethyliden-1.5-dimethyl-3.3-diphenyl-pyrrolidin”, the pKa-Wert is 9.6.
